Test results from BigSolDB 2.1.

O=C(O)/C=C/C(=O)O.OCCOCCN1CCN(C2=Nc3ccccc3Sc3ccccc32)CC1.OCCOCCN1CCN(C2=Nc3ccccc3Sc3ccccc32)CC1
solubility (mole fraction)
Settings	283.15 K	288.15 K	293.15 K	298.15 K	303.15 K	308.15 K	313.15 K	318.15 K	323.15 K
in 2-butanone	0.000134	0.000164	0.000204	0.000251	0.000309	0.000382	0.000462	0.000581	0.000721
in MIBK	0.000128	0.000153	0.000181	0.000224	0.000273	0.000328	0.000398	0.000475	0.000571
in MTBE	4.36e-05	5.55e-05	6.74e-05	8.27e-05	0.000107	0.00013	0.000161	0.000192	0.000241
in THF	0.000705	0.000873	0.00108	0.00133	0.00167	0.00208	0.00261	0.00323	0.00409
in dichloromethane	0.000174	0.000213	0.000279	0.000365	0.00046	0.000597	0.000775	–	–
in ethyl formate	8.6e-05	0.000105	0.000125	0.000158	0.000197	0.00024	0.000291	0.000362	0.000445
in isopropyl acetate	3.95e-05	4.7e-05	5.77e-05	6.96e-05	8.3e-05	0.000104	0.000127	0.000158	0.000191
in n-heptane	1.59e-05	1.94e-05	2.44e-05	3.02e-05	3.61e-05	4.57e-05	–	6.96e-05	–
in n-hexane	1.46e-05	1.77e-05	2.17e-05	2.75e-05	3.3e-05	4.17e-05	5.15e-05	6.53e-05	8.16e-05
in n-propanol	0.000244	0.000317	0.000396	0.000497	0.000614	0.000797	0.00101	0.00126	0.0016
in toluene	3.01e-05	3.49e-05	4.19e-05	4.98e-05	5.82e-05	7.09e-05	8.5e-05	0.000102	0.000121
